According to the supplement of paper PMC11208160:

assay: recombinant barcode read abundance after kanamycin selection (control-corrected) (log10(CPM+1)); higher = more efficient recombination; sequences stand for … in AGTGCAGAGAAAATCGGCCAGTTTTCTCTGCCTGCAGTCCGCATGCCGT…AGATTTATGCAGCGGACTGCCTTTCTCCCAAAGTGATAAACCGGACAGTATCATGGACCGGTTTTCCCGGTAATCCGTATTTGCAAGGTTGGTTTCACT; site = the 11-nt target
Summary of the method: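 Two replicates per condition were plated: chloramphenicol/ampicillin LB agar for the control, and chloramphenicol/ampicillin/kanamycin with 0.1 mM IPTG for selection. The pooled E. coli screen behind them paired targets with IS621 bridge RNA target-binding loops. Recombination efficiency is expressed from averaged, control-corrected barcode counts per million at recombinant junctions, as log10(CPM+1).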
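Note: IS621 recombinase and bridge RNA in Escherichia coli cells.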

Sequence | recombinant barcode read abundance (log10)
CTAGACTCTTGGGTTCTAACCTGTTGCAA (site CTAGACTCTAT) | 0.644
GCAGGTCCTTGGGTTCTAACCTGTTGCCT (site GCTGGTCCTAG) | 0.397
TTAGAGGCTTGGGTTCTAACCTGTTGCCT (site TTAGAGTCTAG) | 0.0154
CGACACACTTGGGTTCTAACCTGTTGCCT (site CGCCACACTAG) | 0.0974
CGAACCGCTTGGGTTCTAACCTGTTGCCT (site CCAACCGCTAG) | 0.0439
ATAGGACCTTGGGTTCTAACCTGTTGCCA (site ATAGGACCTTG) | 1.57
AACAGACCTTGGGTTCTAACCTGTTGCCT (site GACAGACCTAG) | 0.291
CTCTGCTCTTGGGTTCTAACCTGTTGCTT (site CACTCCTCTAA) | 0.0518
TGCTCCTCTTGGGTTCTAACCTGTTGCCT (site CGCTCCTCTAG) | 0.153
GGACCCTCTTGGGTTCTAACCTGTTGCCT (site AGACCCTCTAG) | 1.09
TAGGCGACTTGGGTTCTAACCTGTTGCTT (site TAGCCGACTAA) | 0.182
CGAACCGCTTGGGTTCTAACCTGTTGCCT (site CTAACCGCTAG) | 0.0258
TGACTCTCTTGGGTTCTAACCTGTTGCCT (site TGACTCTCTAG) | 1.02
TAAACAGCTTGGGTTCTAACCTGTTGCCT (site TATACAGCTAG) | 0.0779
ACTAGTCCTTGGGTTCTAACCTGTTGCCT (site ACTAGTCCTAG) | 0.337
ACATCTACTTGGGTTCTAACCTGTTGCTA (site ACATCTACTTA) | 0.145
GGGTCCTCTTGGGTTCTAACCTGTTGCCA (site GGGTCCTCTCG) | 0.29
ACATTGTCTTGGGTTCTAACCTGTTGCGG (site ACAATGTCTCC) | 0.13
TGTAGAGCTTGGGTTCTAACCTGTTGCCG (site TGTAGAGCTCG) | 0.243
TAATGCCCTTGGGTTCTAACCTGTTGCCT (site TAATGCCCTAG) | 0.634
CTAATATCTTGGGTTCTAACCTGTTGCCA (site CTCATATCTTG) | 0.128
CTACGCTCTTGGGTTCTAACCTGTTGCGA (site CTAGGCTCTCC) | 0.452

Sequence | recombinant barcode read abundance (log10)
CATCGGGCTTGGGTTCTAACCTGTTGCAG (site CATCGGGCTCT) | 1.43
CGGAATCCTTGGGTTCTAACCTGTTGCAT (site CGGAATCCTAC) | 0.841
GGCTAACCTTGGGTTCTAACCTGTTGCCT (site GGCTAACCTAG) | 1.33
ACAAAAGCTTGGGTTCTAACCTGTTGCGG (site ACAAAGGCTCC) | 0.514
TCGACCACTTGGGTTCTAACCTGTTGCCT (site TCGACCACTAG) | 0.115
GGCCGGGCTTGGGTTCTAACCTGTTGCCT (site GGCCGGCCTAG) | 0.0912
CTCTGAGCTTGGGTTCTAACCTGTTGCAG (site ACTGCTCCTAG) | 0.0584
AATGAATCTTGGGTTCTAACCTGTTGCCT (site AATGCATCTAG) | 0.255
GTCCCTCCTTGGGTTCTAACCTGTTGCTT (site GTCCCTCCTAA) | 0.94
CATGATGCTTGGGTTCTAACCTGTTGCCT (site CACGATGCTAG) | 0.487
TTGAATGCTTGGGTTCTAACCTGTTGCCT (site TTGAATGCTAG) | 1.15
CCTGGGTCTTGGGTTCTAACCTGTTGCTT (site CATGGGTCTAG) | 0.0557
ACCCCGTCTTGGGTTCTAACCTGTTGCCT (site ACCCCGTCTAG) | 1.65
TCACCTGCTTGGGTTCTAACCTGTTGCCT (site TCACGTGCTAG) | 0.192
AGTCGGACTTGGGTTCTAACCTGTTGCTT (site AGTCGGACTAA) | 0.517
GATACTGCTTGGGTTCTAACCTGTTGCCT (site GAGACTGCTAG) | 0.0206
TTGTACCCTTGGGTTCTAACCTGTTGCCT (site TTGTACCCTAG) | 1.45
GGACCATCTTGGGTTCTAACCTGTTGCCT (site GGACGATCTAG) | 0.146
CTATGACCTTGGGTTCTAACCTGTTGCGT (site CTATGACCTAT) | 1.26
TCACTTGCTTGGGTTCTAACCTGTTGCCT (site TCACGTGCTAG) | 0.177
ACATCAACTTGGGTTCTAACCTGTTGCCT (site ACTTCAACTAG) | 0.0926
GCTTGGCCTTGGGTTCTAACCTGTTGCCT (site GCTTGGCCTAG) | 0.188

Sequence | recombinant barcode read abundance (log10)
AATAGGACTTGGGTTCTAACCTGTTGCGC (site ATTAGGACTTC) | 0.0105
GAGCCGACTTGGGTTCTAACCTGTTGCCT (site GAGCTGACTAG) | 0.0365
CAGTGGACTTGGGTTCTAACCTGTTGCCT (site CATTGGACTAG) | 0.0477
AACATTGCTTGGGTTCTAACCTGTTGCCT (site AACACTGCTAG) | 0.695
CAAGGGACTTGGGTTCTAACCTGTTGCGG (site CAGGGGACTCG) | 0.0306
GAGCTGCCTTGGGTTCTAACCTGTTGCTT (site AAGCTGCCTAG) | 0.25
ACTGGTTCTTGGGTTCTAACCTGTTGCCG (site TACTCACCTAA) | 0.0451
GTAGTATCTTGGGTTCTAACCTGTTGCCT (site GTAGTAGCTAG) | 0.104
CCGTTGTCTTGGGTTCTAACCTGTTGCTA (site GGTCGTACTAG) | 0.0443
CTACAGACTTGGGTTCTAACCTGTTGCGG (site CTACAGACTGC) | 0.141
CACTTCCCTTGGGTTCTAACCTGTTGCAT (site CACTTCCCTAG) | 0.316
GTCGGAGCTTGGGTTCTAACCTGTTGCTG (site GTCGGAGCTCC) | 0.511
CTCTAGGCTTGGGTTCTAACCTGTTGCCT (site CTCTGGGCTAG) | 0.202
GGGGCGTCTTGGGTTCTAACCTGTTGCCG (site GGGGCGTCTCG) | 1.63
TGGTACGCTTGGGTTCTAACCTGTTGCCT (site TGGTCCGCTAG) | 0.235
TAATCGGCTTGGGTTCTAACCTGTTGCCT (site TAATCGTCTAG) | 0.111
TATCCGACTTGGGTTCTAACCTGTTGCCA (site TATCCGACTGG) | 0.0584
CTCATTCCTTGGGTTCTAACCTGTTGCAT (site CTCATTCCTAT) | 0.523
GCCGGGTCTTGGGTTCTAACCTGTTGCTT (site GCCGGGTCTAA) | 0.812
CTACAGACTTGGGTTCTAACCTGTTGCGC (site CTACAGACTTC) | 0.503
ATAAGTCCTTGGGTTCTAACCTGTTGCGA (site ATAAGTCCTTC) | 2.14
GGCCGGGCTTGGGTTCTAACCTGTTGCCT (site GGCCGGACTAG) | 0.143

Sequence | recombinant barcode read abundance (log10)
TCCAGTCCTTGGGTTCTAACCTGTTGCTA (site TCCAGTCCTTA) | 0.688
AATTAGACTTGGGTTCTAACCTGTTGCCT (site CATTAGACTAG) | 0.152
AGGGATCCTTGGGTTCTAACCTGTTGCGT (site AGGGATCCTAC) | 3.09
CGGATGGCTTGGGTTCTAACCTGTTGCCT (site CGGATAGCTAG) | 0.031
TCTTAGACTTGGGTTCTAACCTGTTGCGG (site TCTTAGACTCC) | 1.47
ACGCGTGCTTGGGTTCTAACCTGTTGCGG (site CTAGTAACTTG) | 0.019
AAGACTCCTTGGGTTCTAACCTGTTGCCT (site AAGTCTCCTAG) | 0.0612
AGTCTAGCTTGGGTTCTAACCTGTTGCCA (site AGTCTAGCTTG) | 0.493
AATTAGCCTTGGGTTCTAACCTGTTGCCT (site AATTAGCCTAG) | 0.488
GCCCGTCCTTGGGTTCTAACCTGTTGCCG (site CTCCGTCCTCG) | 0.116
TCCCAGCCTTGGGTTCTAACCTGTTGCTG (site TCCCATCCTAA) | 0.274
CTATGGACTTGGGTTCTAACCTGTTGCAT (site CTATGGACTCT) | 0.614
GTAGTAGCTTGGGTTCTAACCTGTTGCCT (site GTAGTACCTAG) | 0.0193
ATTGGGTCTTGGGTTCTAACCTGTTGCCT (site ATTGGCTCTAG) | 0.0688
CTGCATACTTGGGTTCTAACCTGTTGCCT (site CTGCATACTAG) | 0.86
GTGTATCCTTGGGTTCTAACCTGTTGCAT (site GTGTGTCCTAT) | 0.0301
CTGGTATCTTGGGTTCTAACCTGTTGCTT (site CTGGTATCTAA) | 0.509
GGTTCTTCTTGGGTTCTAACCTGTTGCCT (site GGTTCTTCTAG) | 0.344
CTGCTACCTTGGGTTCTAACCTGTTGCCT (site CAGCTACCTAG) | 0.706
GGGGATCCTTGGGTTCTAACCTGTTGCCT (site GGGGATCCTAG) | 2.45
